From PubChem BioAssay (NCI)
Where “and” joins values, the source holds several entries; their conditions need not be identical. Equal entries are not always repeated.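 Values below derive from 48-hour exposures of cells grown in 96-well plates, with endpoints linearly interpolated between the two concentrations bracketing the appropriate inhibition level. Here, GI50 denotes the concentration required for 50% inhibition of growth. TGI: concentration producing complete growth inhibition.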

What was measured:
Assay in all cases: NCI-60 cell line screen, 48 h
[1] = tested on: NCI-H23 lung
[2] = tested on: SK-MEL-2 melanoma
[3] = tested on: HS 578T breast
[4] = tested on: SF-295 CNS
[5] = tested on: HCT-15 colon
[6] = tested on: MALME-3M melanoma
[7] = tested on: BT-549 breast
[8] = tested on: SF-539 CNS
[9] = tested on: HOP-62 NSCLC
[10] = tested on: A549 NSCLC
[11] = tested on: PC-3 prostate

Row | SMILES | TGI [1] | TGI [2] | TGI [3] | TGI [4] | TGI [5] | TGI [6] | TGI [7] | TGI [8] | TGI [9] | TGI [10] | TGI [11] | GI50 [7]
1 | Cc1ccccc1OC(C)C(=O)NN1C(=O)CSC1c1ccc(Cl)cc1 (configuration not stated) | > 100 µM | > 100 µM | > 100 µM | > 61.3 µM | > 100 µM | > 100 µM | 98.9 µM | > 63.1 µM | 51.2 µM | > 100 µM | > 100 µM | 
2 | COc1ccc2nc(-c3ccccc3)cc(OCC(=O)O)c2c1 | > 100 µM | > 100 µM | > 100 µM | > 100 µM | > 100 µM | > 100 µM | > 100 µM | > 100 µM | > 100 µM | > 100 µM | > 100 µM | 
3 | CC(C)CCC[C@@H](C)[C@H]1CC[C@H]2[C@@H]3CC[C@H]4C[C@@H](CCC=C(c5cc(Cl)c(O)c(C(=O)O)c5)c5cc(Cl)c(O)c(C(=O)O)c5)CC[C@]4(C)[C@H]3CC[C@]12C | > 100 µM | > 100 µM | > 100 µM | > 100 µM | > 100 µM | > 100 µM | > 100 µM | > 100 µM | > 100 µM | > 100 µM | > 100 µM | 
4 | O=C(/C=C/c1cccc(Oc2ccccc2)c1)NCc1ccc(C(=O)NCc2ccccc2)cc1 | > 100 µM | > 100 µM | > 100 µM | 79.4 µM | > 100 µM | > 100 µM | > 100 µM | > 100 µM | 18.8 µM | > 100 µM | > 100 µM | 
5 | COC(=O)C1Cc2cc3c(cc2C1=O)CCCC3 (configuration not stated) | > 100 µM | > 100 µM | > 100 µM | > 100 µM | > 100 µM | > 100 µM | > 100 µM | > 100 µM | > 100 µM | > 100 µM | > 100 µM | 
6 | CC(C)(C)OC(=O)NC1CC2(C=C(Br)C(=O)C(Br)=C2)OC1=O (configuration not stated) | 22 µM | 32 µM | 51.3 µM | 38.9 µM | 23 µM | 18.9 µM | 30.3 µM | 42.5 µM | 36.8 µM | 38.7 µM | 27.3 µM | 
7 | CC[C@@]1(O)C(=O)OCc2c1cc1n(c2=O)Cc2c-1nc1ccccc1c2/C=N\NC(=O)C1CCCN1 (some centres not stated) | 0.965 µM | 58.4 µM | > 100 µM | 18.6 µM | > 61.9 µM | > 89.4 µM | > 100 µM | 0.318 µM | 2.16 µM | > 100 µM | > 100 µM | 
8 | COC(CN(C(C)=O)C1CCC2(SCCS2)c2[nH]c3ccccc3c21)OC (configuration not stated) | > 100 µM | > 100 µM | > 100 µM |  | > 100 µM | > 100 µM | > 100 µM | > 100 µM | > 100 µM | > 100 µM | > 100 µM | 
9 | Cn1c2ccccc2c2c3c(c4c5ccccc5n(C)c4c21)C(=O)NC3=O | > 100 µM | > 58.3 µM | > 72.6 µM | > 76.5 µM | > 100 µM | > 100 µM | > 100 µM | 35.4 µM | > 55.8 µM | > 85.3 µM | > 77.5 µM | 
10 | NC(N)=NC(N)=Nc1ccc(S(=O)(=O)O)cc1 | > 100 µM | > 100 µM | > 100 µM | > 100 µM | > 100 µM | > 100 µM | > 100 µM | > 100 µM | > 100 µM | > 100 µM | > 100 µM | 
11 | O=C(O)CCS/C(=C\C(SCCC(=O)O)c1ccc(Cl)cc1)c1ccc(Cl)cc1 (configuration not stated) | > 100 µM | 74.4 µM | > 100 µM | > 100 µM | > 100 µM | > 100 µM | 87.5 µM | > 100 µM | > 100 µM | > 100 µM | > 100 µM | 
12 | [O-][N+](=Nc1ccccc1CO)c1ccccc1CO | > 100 µM | > 100 µM | > 100 µM |  | > 100 µM | > 100 µM | > 100 µM | > 100 µM |  | > 100 µM | > 100 µM | 
13 | COc1c(/C=C/C(C)(C)O)cc(C2CC(=O)c3c(O)cc(O)cc3O2)cc1CC=C(C)C (configuration not stated) | 18.3 µM | 15.6 µM | 24.9 µM | 14.8 µM | 17.5 µM | 18 µM | 15.8 µM | 17.4 µM |  | 19.8 µM | 16.3 µM | 
14 | CSc1ccc(-c2cc(-c3nc4ccccc4[nH]3)no2)cc1 | 66 µM | 49.4 µM | > 100 µM | > 100 µM | 62.9 µM | > 100 µM | 55.5 µM | > 100 µM | > 100 µM | 90.8 µM | > 100 µM | 
15 | CCOC(=O)c1nnsc1N/N=C\c1ccc([N+](=O)[O-])cc1 | > 100 µM | > 100 µM | > 100 µM | > 100 µM | > 100 µM | > 100 µM | > 100 µM |  | > 100 µM | > 100 µM | > 100 µM | 
16 | O=C(c1nc2ccc([N+](=O)[O-])cc2[nH]c1=O)C(O)c1ccc2c(c1)OCO2 (configuration not stated) | > 100 µM | > 100 µM | > 100 µM | > 100 µM | > 100 µM | > 100 µM | > 100 µM | > 100 µM | > 100 µM | > 100 µM | > 100 µM | 
17 | Cc1ccc2c(c1)C(=O)c1nc(C)ccc1C2=O | 56.7 µM | > 100 µM | > 100 µM | > 100 µM | 48.1 µM | 24.7 µM | > 100 µM | > 100 µM | > 100 µM | > 100 µM | > 100 µM | 
18 | CCN(CC)CCCNc1ccc2nc(C)n3c4ccc(O)cc4c(=O)c1c23 | 15.8 µM | 21.3 µM | 29 µM | 19.6 µM | 15.6 µM | 22.8 µM | 25.6 µM | 22.7 µM | 19.1 µM | 18.7 µM | 12.6 µM | 

Row | SMILES | TGI [1] | TGI [2] | TGI [3] | TGI [4] | TGI [5] | TGI [6] | TGI [7] | TGI [8] | TGI [9] | TGI [10] | TGI [11] | GI50 [7]
19 | Cc1ccc(/C=N/n2c(-c3ccc(C)cc3)n[nH]c2=O)cc1 | > 100 µM | > 100 µM | > 100 µM | > 100 µM | > 100 µM | > 100 µM | > 100 µM | > 100 µM | > 100 µM | > 100 µM | > 100 µM | 
20 | O=S(=O)(O)c1cc(N=Nc2c(O)ccc3ccccc23)ccc1/C=C/c1ccc(N=Nc2c(O)ccc3ccccc23)cc1S(=O)(=O)O | > 100 µM | > 100 µM | > 100 µM | > 100 µM | > 100 µM | > 100 µM | > 100 µM |  | > 100 µM | > 100 µM | > 100 µM | 
21 | Nc1nc(Cl)c(N)c(NCC2(CO)CC2)n1 | > 100 µM | > 100 µM | > 100 µM | > 100 µM | > 100 µM | > 100 µM | > 100 µM | > 100 µM | > 100 µM | > 100 µM | > 100 µM | 
22 | C=CCC1CC(n2cc(C)c(=O)[nH]c2=O)OC1CO[Si](C)(C)C(C)(C)C (configuration not stated) | 27.1 µM | 32.8 µM | 29.4 µM | 40 µM | 29.1 µM | 23.2 µM | 29.6 µM | 28.3 µM | 34.7 µM | 26.8 µM | 25.1 µM | 
23 | C=C(C(=O)O)[C@@H]1C[C@@H]2O[C@H]1[C@@H](O)[C@@H](C)CCCC(C)=CCC[C@@]2(C)O | > 100 µM | > 100 µM | > 100 µM | > 100 µM | > 100 µM | > 100 µM | > 100 µM | > 100 µM | > 100 µM | > 100 µM | > 100 µM | 33.5 µM and > 100 µM
24 | CC1=NC2=Nc3nc(C)cc[n+]3CN2C=C1 | > 100 µM | > 100 µM | > 100 µM | > 100 µM | > 100 µM | > 100 µM | > 100 µM | > 100 µM | > 100 µM | > 100 µM | > 100 µM | 
25 | C/C(=N\N=C(\N)SB(F)F)c1ccc2ccccc2c1 | > 100 µM | > 100 µM | > 100 µM | > 100 µM | > 100 µM | > 100 µM | > 100 µM | > 100 µM |  | > 100 µM | > 100 µM | 
26 | COc1cc2c(cc1OC)C(=O)N(c1ccc(O)cc1)C2=O | > 100 µM | > 100 µM | > 100 µM | > 100 µM | > 100 µM | > 100 µM | > 100 µM | > 100 µM | > 100 µM | > 100 µM | > 100 µM | 
27 | CC(=N\N)/C(C)=N/N=C(C)/C(C)=N/N | > 100 µM | > 100 µM | > 100 µM | > 100 µM | > 100 µM | > 100 µM | > 100 µM | > 100 µM | > 100 µM | > 100 µM | > 100 µM | 
28 | CS(=O)(=O)OCCN(CCOS(C)(=O)=O)c1ccc(C=Nc2cccc(Cl)c2)cc1 | 10.6 µM | 66.5 µM | 98.9 µM | 28.9 µM | 10 µM | 33.2 µM | 53.3 µM | 27.3 µM | > 100 µM | 29.2 µM | > 100 µM | 
29 | O=C(/C=C/c1ccc(-c2ccccc2)cc1)NCc1ccc(C(=O)NCc2ccccc2)cc1 | > 100 µM | > 100 µM | > 100 µM | > 100 µM | > 100 µM | > 100 µM | > 100 µM | > 100 µM | > 100 µM | > 100 µM | > 100 µM | 
30 | Clc1ccc(C2=NN=C3C(c4ccccc4)=Nc4ccccc4N3C2)cc1 | > 100 µM | > 100 µM | 31.6 µM | > 100 µM | > 100 µM | > 82 µM | > 100 µM | > 100 µM | > 100 µM | > 100 µM | > 100 µM | 
31 | O=S(=O)(Nc1nc2ccccc2nc1Nc1ccc2ccccc2c1)c1ccccc1 | 41.3 µM | 14 µM | > 74.5 µM | 47.3 µM | > 57.5 µM | > 100 µM | > 80.1 µM | 45.8 µM | 30.8 µM | > 100 µM | > 37.2 µM | 
32 | O=C(O)C(O)C(O)C(=O)O (configuration not stated) |  | > 100 µM | > 100 µM | > 100 µM | > 100 µM | > 100 µM | > 100 µM | > 100 µM | > 100 µM | > 100 µM | > 100 µM | 
33 | CN1C/C(=C\c2cccs2)C(O)/C(=C/c2cccs2)C1 (configuration not stated) | > 100 µM | > 100 µM | > 100 µM | > 100 µM | > 100 µM | > 100 µM | > 100 µM |  | > 100 µM | > 100 µM | > 100 µM | 
34 | Cc1nc(C)c(N2CCN(S(=O)(=O)N(Cc3ccccc3)Cc3ccccc3)CC2)c(=O)[nH]1 | 56.5 µM | > 100 µM | 38.8 µM | > 83.6 µM | > 100 µM | > 100 µM | > 100 µM | 42.5 µM | 37.9 µM | > 100 µM | > 100 µM | 
35 | CC(NC(=O)NC(C)(C)C)NC(=O)C(N)CC(=O)O (configuration not stated) | > 100 µM | > 100 µM | > 100 µM | > 100 µM | > 100 µM | > 100 µM | > 100 µM | > 100 µM | > 100 µM | > 100 µM | > 100 µM | 
